# Test results reported in article PMC8124942, “In Vitro and In Vivo Cell Uptake of a Cell-Penetrating Peptide Conjugated with Fluorescent Dyes Having Different Chemical Properties” (Cancers, 2021).
# Experiment: Reverse-phase HPLC retention time as indicator of hydrophilicity/lipophilicity
# Assay type: physicochemical
# Details: chromatographic, COSMOSIL 5C18-AR-300 (4.6 x 150 mm), eluent A H2O/0.1% TFA, eluent B CH3CN/0.1% TFA, A:B = 80:20 to 20:80 in 25 min, detection 649 nm (Cy5/sulfoCy5) or 545 nm (Cy3/sulfoCy3), used as indicator of hydrophilicity/lipophilicity
# Excerpt: General chemicals were of the best grade available, supplied by FUJIFILM Wako Pure Chemical Corporation (Osaka, Japan), Tokyo Chemical Industries Co., Ltd. (Tokyo, Japan), KANTO CHEMICAL Co., INC. (Tokyo, Japan), and Sigma-Aldrich Co. LLC (St. Louis, MO, USA), and were used without further purification. Cy3/Cy5-SE was purchased from Abcam (Cambridge, UK) and sulfoCy3/sulfoCy5-SE was purchased from AAT Bioquest (Sunnyvale, CA, USA). Peptide A was purchased from GlyTech, Inc. (Kyoto, Japan). MALDI-TOF mass spectra (MS) were measured with an Autoflex III TOF/TOF (Bruker Corporation, Billerica, MA, USA). Purification and high-performance liquid chromatography (HPLC) analyses were performed by HPLC systems (Shimadzu Corporation, Kyoto, Japan) with reverse-phase columns: the COSMOSIL 5C18-AR-300 (4.6 × 150 mm) (NACALAI TESQUE, INC., Kyoto, Japan) for analysis and the COSMOSIL 5C18-AR-300 (10 mm × 150 mm) (NACALAI TESQUE, INC.) for purification, using eluent A (H2O/0.1% trifluoroacetic acid (TFA)) and eluent B (CH3CN/0.1% TFA). Fluorescence images of living cells were taken on a BX41 upright fluorescent microscope (Olympus Corporation, Tokyo, Japan) equipped with a suitable filter set for Cy3/Cy5 dyes; it consisted of a 530–550 nm excitation filter and a 575–625 nm emission filter for the Cy3 dye, and a 608–648 nm excitation filter and a 652–732 nm emission filter for the Cy5 dye. […] Fluorescence images of animals and organs were taken with a FluorVivo Imaging System (Indec BioSystems, Santa Clara, CA, USA) equipped with a suitable filter set for a Cy5 dye; it consisted of a 600–640 nm excitation filter and a 665 nm long pass filter. […]
# Cy3/Cy5-peptide A and sulfoCy3/sulfoCy5-peptide A were synthesized using commercially available Cy3/Cy5 succinimidyl ester (SE) and sulfoCy3/sulfoCy5 SE (Figure 1). […] Dye-SE and dye-peptide A were analyzed by HPLC under the same conditions; the retention times are shown in Table 1 because they are indicators of hydrophilicity/lipophilicity. […]
# Figure S1. […] The compounds were analyzed by reverse-phase HPLC (eluent A: […]
row,Molecule,Retention Time [min]
1,CCN1C(=CC=CC2=[N+](CCCCCC(=O)ON3C(=O)CCC3=O)c3ccc(S(=O)(=O)O)cc3C2(C)C)C(C)(C)c2cc(S(=O)(=O)[O-])ccc21 [sulfoCy3-SE],7.3
2,CCN1C(=CC=CC=CC2=[N+](CCCCCC(=O)ON3C(=O)CCC3=O)c3ccc(S(=O)(=O)O)cc3C2(C)C)C(C)(C)c2cc(S(=O)(=O)[O-])ccc21 [sulfoCy5-SE],9.3
3,Cy5 succinimidyl ester [Cy5-SE],22.6
